Reference: paper PMC5052704, “Transition metal ion FRET uncovers K^+ regulation of a neurotransmitter/sodium symporter” (Nature Communications, 2016)

Biological target: T1, LeuT (leucine transporter) (Aquifex aeolicus, UniProt O67854, R30A/A313H/A317H/K398C)
T1 construct: gene snf; full-length LeuT, C-terminal octahistidine tag with thrombin site, pET16b derivative, expressed in E. coli C41, purified in DDM; tmFRET variants labelled with fluorescein-5-maleimide
Assay: scintillation proximity assay, Na+-dependent [3H]leucine binding
Conditions: 5 μM [3H]leucine; pH 7.5; DDM; fluorescein-labelled at K398C; labelled compound

Which “scintillation proximity assay, Na+-dependent [3H]leucine binding” value does the source give for `CC(C)C[C@H](N)C(=O)O` [leucine] here?
The value was “Na^+ dependence of [^3H]leucine binding to R30A^tmFRET”.
